Source: paper PMC11947619, “Molecular mechanism of Mad2 conformational conversion promoted by the Mad2‐interaction motif of Cdc20” (Protein Science : A Publication of the Protein Society, 2025)
Residues, ends and D or L forms follow the SMILES beside them.

Target: T1, O‐Mad2^∆C10 (Homo sapiens, UniProt Q13257)
T1 construct: His6-DoubleStrep-TEV (N); made in house
Assay: NMR titration / HSQC: Cdc20^MIM with O-Mad2^∆C10 (trapped open state)
Format: binding
Conditions: 25°C; for binding to Mad2^∆C10: NMR titration / HSQC, two-fold molar excess of peptide, spectra within 15 minutes (Figure S6)
Description: The cloning of human wild‐type Mad2 and the mutant Mad2^R133A by the USER® method (NEB) into the pRSFDuet‐1 vector (71341‐3, Sigma‐Aldrich) with a His6‐DoubleStrep‐TEV tag at its N‐terminus was described previously (Fischer et al., [2022]). For this study, Mad2 mutants were generated as follows. The Mad2^LL expression construct was generated from the wild‐type Mad2 expression vector (Fischer et al., [2022]) by replacing residues 109–117 (TAKDDSAPR) with GSG. Mad2^ΔC10 and Mad2^Δβ7/β8 were modified from wild‐type Mad2 expression construct by deleting residues 196–205 and 166–205, respectively. Mad2^LL/R133A was modified by substituting Ala for Arg133 from the Mad2^LL expression construct. Mad2^LL/ΔC10 was modified from Mad2^LL by deleting residues 196–205. Mad2^L13A/R133A was generated from the Mad2^R133A mutant. Site‐directed mutagenesis of Mad2 was completed using the QuikChangeTM Lightning Site‐Directed Mutagenesis Kit (Agilent) developed by Stratagene Inc. (La Jolla, CA).
All NMR data on Mad2 were acquired in a 5 mm tube at 25°C in 20 mM HEPES, pH 7.0, 100 mM NaCl, 1 mM TCEP, 5% D2O. Backbone assignment experiments and all spectra, unless otherwise denoted, were collected using an in‐house Bruker 800 MHz Avance III spectrometer, equipped with a triple resonance TCI CryoProbe. 2D spectra were acquired using BEST ^1H,^15N‐TROSY HSQC, with 16 scans and a recycle delay of 400 ms, giving an experimental time of 12 min per spectrum. A Bruker 950 MHz Avance III spectrometer (MRC Biomedical NMR Centre, Francis Crick Institute) was used for the residue conversion rate analysis and the characterization of Mad2 dimers. Most experiments, including all backbone experiments, were acquired with 100 μM samples; the residue‐specific conversion rate analysis and characterization of Mad2 dimers utilized 200 μM samples and 300 μM samples, respectively.
Mad2LL (grey), Mad2∆C10 (green) and Mad2LL/∆C10 (purple). […] 15N{1H}‐ heteronuclear NOE were measured at 298 K. Regions that are highly dynamic are highlighted in yellow. e. […]

T1 sequence (Q13257 1-195): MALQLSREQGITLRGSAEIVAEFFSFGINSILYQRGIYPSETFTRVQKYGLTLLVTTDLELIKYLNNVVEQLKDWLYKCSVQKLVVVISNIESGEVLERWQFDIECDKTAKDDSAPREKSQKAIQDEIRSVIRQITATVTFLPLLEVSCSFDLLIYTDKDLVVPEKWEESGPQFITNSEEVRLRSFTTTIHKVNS

Molecule: CC[C@H](C)[C@H](NC(=O)[C@H](CCCCN)NC(=O)[C@H](C)NC(=O)[C@H](CCC(=O)O)NC(=O)[C@H](CCC(=O)O)NC(=O)[C@@H](NC(=O)[C@H](CC(=O)O)NC(=O)[C@@H](N)Cc1ccccc1)C(C)C)C(=O)N[C@@H](CC(C)C)C(=O)N[C@@H](CCCNC(=N)N)C(=O)N[C@@H](CC(C)C)C(=O)N[C@@H](CO)C(=O)NCC(=O)N[C@@H](CCCCN)C(=O)N1CCC[C@H]1C(=O)N[C@@H](CCC(N)=O)C(=O)N[C@@H](CC(N)=O)C(=O)N[C@@H](C)C(=O)N1CCC[C@H]1C(=O)N[C@@H](CCC(=O)O)C(=O)NCC(=O)N[C@@H](Cc1ccc(O)cc1)C(=O)N[C@@H](CCC(N)=O)C(=O)N[C@@H](CC(N)=O)C(=O)N[C@@H](CCCNC(=N)N)C(=O)N[C@@H](CC(C)C)C(=O)N[C@@H](CCCCN)C(=O)N[C@H](C(=O)N[C@@H](CC(C)C)C(=O)N[C@@H](Cc1ccc(O)cc1)C(=O)O)C(C)C [Cdc20^MIM‐123‐152] (H-FDVEEAKILRLSGKPQNAPEGYQNRLKVLY-OH; N-terminus and C-terminus assumed)
- binding to Mad2^∆C10: No binding

Molecule: EHQKAWALNLNGFDVEEAKILRLSGKPQ [Cdc20^MIM‐111‐138, Cdc20^MIM peptide spanning Cdc20 residues 111–138]
- binding to Mad2^∆C10: No binding
- O- to C-Mad2 conversion, in words (O-Mad2^∆C10 100 μM, two-fold molar excess peptide, 24 h time course): eliminated
